Values of other authors as cited in patent publication US11446408B2, “Composition and methods for antimicrobial articles” (priority 2011, dated 2022).

Experiments:
Settings in all cases: 10 minutes at 25 degrees Celsius
enteric bacteria = test system: enteric bacteria
enteric viruses = test system: enteric viruses
amoebic cysts = test system: amoebic cysts

II [iodine]
iodine sufficient to kill enteric bacteria (enteric bacteria): 0.2 PPM
iodine sufficient to kill enteric viruses (enteric viruses): 14.6 PPM
iodine sufficient to kill amoebic cysts (amoebic cysts): 3.5 PPM
